Measured values published in patent US20240083873A1, “PYRIMIDINE CARBOXAMIDE COMPOUND AND APPLICATION THEREOF” (SHANGHAI MEIYUE BIOTECH DEVELOPMENT CO., LTD, priority 2020, published 2024).

Experiments:
[1] = target: recombinant human Vanin-1 (Homo sapiens (Human), UniProt O95497); test: Vanin-1 recombinant enzyme activity inhibition assay; format: biochemical; details: Pantetheine 7-amino-4-trifluoromethylcoumarin substrate 45 μM, data at the 30th minute
Procedure: 1. Vanin-1 Recombinant Enzyme Activity Inhibition Assay
A certain mass of the compound was weighed precisely, and prepared with DMSO and reaction buffer (50 mM Tris base, 50 mM KCl, 1.6 mM cysteamine, 0.005% Brij 35, pH 8.0, prepared when using) to a maximum concentration of 10000 nM, then diluted in a 4-fold gradient, and prepared into 10 compound working solutions with different concentrations; • for the activity inhibition reaction of recombinant human Vanin-1 (Biorab, JN0618), 2.5 μL of compound working solution and 5 μL of recombinant human Vanin-1 protein were first mixed. […] Raw data at the 30th minute were collected for data processing and analysis, then the concentration-effect curve was fitted with GraphPad Prism 8 software, and the IC50 of the compound concentration was calculated.

[2] = In vivo pharmacokinetic evaluation in mice; details: C57BL6 mice; for Peak concentration Cmax: plasma
Excerpt: 2. In Vivo Pharmacokinetic Evaluation in Mice
To detect pharmacokinetic parameters of the compounds of the present disclosure in C57BL6 mice
The vehicle used in the experiment was: DMSO:Solutol:PBS=5%:25%:70% (v/v/v). Preparation method: The required compound was weighed accurately, added with a certain volume of DMSO in a certain proportion, vortex-mixed until completely dissolved, then added successively with Solutol and PBS according to the above proportion, and mixed well. The vehicles used in the intravenous (iv) administration group and oral (po) administration group were the same vehicles in the experiment. The intravenous dose was 1 mpk and the oral dose was 2 mpk. Experimental blood collection time points: IV group: 0.083, 0.25, 0.5, 1, 2, 4, 7, 24 h. PO group: 200 μL of whole blood was collected from jugular vein at each time point of 0.25, 0.5, 1, 2, 4, 7 and 24 h, anticoagulated with EDTA-K2, and immediately centrifuged at 4000 rpm for 5 minutes at 4° C. The supernatant was taken and the samples were frozen and stored in a refrigerator at −80° C. Processing of plasma samples: The sample was precipitated with ACN/MeOH (1:1, v/v) precipitant containing internal standard, then centrifuged at 14000 rpm for 5 minutes. The supernatant was taken into LC-MS/MS (AB Triple Quard 5500) for analysis to obtain plasma concentrations, and parameters were calculated by the non-compartmental model of Winnolin 8.1 version.

[3] = intragastric administration group po, 2 mpk
[4] = intravenous injection group iv, 1 mpk

Sequence of recombinant human Vanin-1 (O95497 22-513): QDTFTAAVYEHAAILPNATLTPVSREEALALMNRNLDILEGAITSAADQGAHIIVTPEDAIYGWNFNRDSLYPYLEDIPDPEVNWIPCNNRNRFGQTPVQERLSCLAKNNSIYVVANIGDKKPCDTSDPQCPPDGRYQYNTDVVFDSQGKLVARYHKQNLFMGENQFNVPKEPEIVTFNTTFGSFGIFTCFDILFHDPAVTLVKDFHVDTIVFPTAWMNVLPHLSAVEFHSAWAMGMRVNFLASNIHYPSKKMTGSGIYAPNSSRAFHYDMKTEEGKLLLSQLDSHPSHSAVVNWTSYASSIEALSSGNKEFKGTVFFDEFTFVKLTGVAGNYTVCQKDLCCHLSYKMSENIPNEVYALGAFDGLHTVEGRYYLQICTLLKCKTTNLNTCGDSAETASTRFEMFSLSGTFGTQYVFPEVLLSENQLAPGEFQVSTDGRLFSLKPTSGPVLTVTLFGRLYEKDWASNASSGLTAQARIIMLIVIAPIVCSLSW

**Q.** Which IC50 [1] does the source give for `O=C(c1cnc(NC2CCc3ncccc32)nc1)N1CCC2(CCOCC2)C1` (centres unmarked) [Compound 2] here?
**A.** 8.9 nM

**Q.** With `CCC1(CC)CCN(C(=O)c2cnc(N[C@@H]3CCc4ncccc43)nc2)C1` [Compound 13] as the molecule, how does the IC50 [1] read?
**A.** 4.2 nM

**Q.** Which IC50 [1] does the source give for `CC(=O)N(C)C1CCN(C(=O)c2cnc(N[C@@H]3CCc4ncccc43)nc2)C1` (some centres unmarked) [Compound 17] here?
**A.** 0.6 nM

**Q.** And the “Area under the curve AUC0-7h” value [2, 3]?
**A.** 684.31 ng·h/mL

**Q.** What about the “Clearance rate CL” value [2, 3] of the same molecule?
**A.** 48.6622 mL/min/kg

**Q.** What about the “Distributed solvent Vd” value [2, 3] of the same molecule?
**A.** 4.55 L/kg

**Q.** What about the “Half-life T1/2” value [2, 3] of the same molecule?
**A.** 1.05 h

**Q.** And the “Peak concentration Cmax” value [2, 3]?
**A.** 539.37 ng/mL

**Q.** And the “Area under the curve AUC0-7h” value [2, 4]?
**A.** 557.60 ng·h/mL

**Q.** And the “Clearance rate CL” value [2, 4]?
**A.** 33.857 mL/min/kg

**Q.** And the “Distributed solvent Vd” value [2, 4]?
**A.** 2.60 L/kg

**Q.** And the “Half-life T1/2” value [2, 4]?
**A.** 0.93 h

**Q.** What about the “Peak concentration Cmax” value [2, 4] of the same molecule?
**A.** 742.33 ng/mL

**Q.** What about the “Bioavailability F %” value ([2]; po 2 mpk vs iv 1 mpk) of the same molecule?
**A.** 61.4%

**Q.** For `Cc1ccc2c(n1)CCC2Nc1ncc(C(=O)N2CCC3(CCOCC3)C2)cn1` (centres unmarked) [Compound 19], which IC50 [1] is on record?
**A.** 2.9 nM

**Q.** What about the “Area under the curve AUC0-7h” value [2, 3] of the same molecule?
**A.** 1459.29 ng·h/mL

**Q.** What about the “Clearance rate CL” value [2, 3] of the same molecule?
**A.** 21.9452 mL/min/kg

**Q.** And the “Distributed solvent Vd” value [2, 3]?
**A.** 2.91 L/kg

**Q.** And the “Half-life T1/2” value [2, 3]?
**A.** 1.52 h

**Q.** What about the “Peak concentration Cmax” value [2, 3] of the same molecule?
**A.** 766.60 ng/mL

**Q.** Which IC50 [1] does the source give for `Cc1cnc2c(c1)C(Nc1ncc(C(=O)N3CCC4(CCOCC4)C3)cn1)CC2` (centres unmarked) [Compound 21] here?
**A.** 6.9 nM

**Q.** Which IC50 [1] does the source give for `O=C(c1cnc(NC2CCc3ncc(Br)cc32)nc1)N1CCC2(CCOCC2)C1` (centres unmarked) [Compound 23] here?
**A.** 1.7 nM

**Q.** Which IC50 [1] does the source give for `CCC(=O)N(C)C1CCN(C(=O)c2cnc(N[C@@H]3CCc4ncccc43)nc2)C1` (some centres unmarked) [Compound 26] here?
**A.** 2 nM
